Assay results: patent publication US3984393A, “Aminoglycoside antibiotics” (The Upjohn Company, priority 1975, dated 1976)
Values after ≈ are worked out from the molar mass of the structure shown. Where two headings read alike, the source gives them in different places.

Tests used:
[1] = tested on: K. pneumoniae UC 58; test: standard microplate test in BHI Agar (MIC), K. pneumoniae UC 58; type: cell-based; conditions: Klebsiella pneumoniae, UC58, 20 h
Experimental: (§1) Compounds were also tested in a standard microplate test in Brain Heart Infusion (BHI) Agar, at a concentration of 1 mg/ml. Incubation is at 37° and end points are read at 20 hours. Brain Heart Infusion Agar (supplied by Difco Laboratories, Detroit, Michigan, U.S.A.) has the following composition:
(§2) Compounds (7β), (7α) and (9) were tested again along with compounds (11) and (14β) against a neamine control using the same conditions as given above.

[2] = tested on: S. hemolyticus UC 152; test: standard microplate test in BHI Agar (MIC), S. hemolyticus UC 152; type: cell-based, Streptococcus hemolyticus; conditions: for MIC: Streptococcus pyogenes
Experimental: as §1, §2

[3] = tested on: B. subtilis; test: standard disc plate assay, 12.5 mm paper discs (zone of inhibition), B. subtilis; type: cell-based, Bacillus subtilis; conditions: for zone of inhibition at 5000 µg/mL / zone of inhibition at 10000 µg/mL: Bacillus subtilis, B. subtilis; for zone of inhibition at 5000 µg/mL: 5 mg/ml; for zone of inhibition at 10000 µg/mL: 10 mg/ml; for active against Bacillus subtilis: conclusion in words from the above results
Excerpt: (§3) The novel intermediates, disclosed herein, are useful to make novel aminoglycoside antibiotics. These novel aminoglycoside antibiotics are antibacterially active, and, thus, they can be used in various environments to eradicate or control sensitive bacteria. Following are in vitro antibacterial test results for representative compounds of the subject invention. The results were obtained with a standard disc plate assay using 12.5 mm paper discs.

[4] = tested on: P. morgani UC 3186; test: standard microplate test in BHI Agar (MIC), P. morgani UC 3186; type: cell-based; conditions: 20 h, P. morgani UC 3186, retest table, neamine control, read-out: Minimum Inhibitory Concentration
Experimental: as §1, §2

[5] = tested on: Ps. aeruginosa UC 95; test: standard microplate test in BHI Agar (MIC), Ps. aeruginosa UC 95; type: cell-based; conditions: Pseudomonas aeruginosa, UC95, 20 h, Ps. aeruginosa UC 95, read-out: Minimum Inhibitory Concentration
Experimental: as §1, §2

[6] = tested on: D. pneumoniae UC 41; test: standard microplate test in BHI Agar (MIC), D. pneumoniae UC 41; type: cell-based; conditions: Streptococcus pneumoniae, UC41, 20 h, D. pneumoniae UC 41, read-out: Minimum Inhibitory Concentration
Experimental: as §1, §2

[7] = tested on: S. flexneri UC 143; test: standard microplate test in BHI Agar (MIC), S. flexneri UC 143; type: cell-based; conditions: Shigella flexneri, UC143, 20 h, retest table, neamine control, read-out: Minimum Inhibitory Concentration
Experimental: as §1, §2

[8] = tested on: B. cereus; test: standard disc plate assay, 12.5 mm paper discs (zone of inhibition), B. cereus; type: cell-based, Bacillus cereus; conditions: for zone of inhibition at 5000 µg/mL / zone of inhibition at 10000 µg/mL: Bacillus cereus, B. cereus; for zone of inhibition at 5000 µg/mL: 5 mg/ml; for zone of inhibition at 10000 µg/mL: 10 mg/ml; for active against Bacillus cereus: conclusion in words from the above results
Excerpt: as §3

[9] = tested on: S. aureus UC 570; test: standard microplate test in BHI Agar (MIC), S. aureus UC 570; type: cell-based; conditions: Staphylococcus aureus, first table, read-out: Minimum Inhibitory Concentration
Experimental: as §1, with “composition: […]” for “composition:”

[10] = tested on: S. schottmuelleri UC 126; test: standard microplate test in BHI Agar (MIC), S. schottmuelleri UC 126; type: cell-based; conditions: 20 h, read-out: Minimum Inhibitory Concentration
Experimental: as §1, §2

[11] = tested on: E. coli UC 45; test: standard microplate test in BHI Agar (MIC), E. coli UC 45; type: cell-based; conditions: Escherichia coli, UC45, 20 h, E. coli UC 45, read-out: Minimum Inhibitory Concentration
Experimental: as §1, §2

[12] = tested on: S. aureus UC 76; test: standard microplate test in BHI Agar (MIC), S. aureus UC 76; type: cell-based, Staphylococcus aureus; conditions: for MIC: Staphylococcus aureus, UC76, 20 h, read-out: Minimum Inhibitory Concentration
Experimental: as §1, §2

[13] = tested on: P. mirabilis A-63; test: standard microplate test in BHI Agar (MIC), P. mirabilis A-63; type: cell-based; conditions: Proteus mirabilis, A63, 20 h, P. mirabilis A-63, retest table, neamine control, read-out: Minimum Inhibitory Concentration
Experimental: as §1, §2

[14] = tested on: S. marcescens UC 131; test: standard microplate test in BHI Agar (MIC), S. marcescens UC 131; type: cell-based; conditions: Serratia marcescens, UC131, 20 h, S. marcescens UC 131, retest table, neamine control, read-out: Minimum Inhibitory Concentration
Experimental: as §1, §2

[15] = tested on: S. aureus UC 746; test: standard microplate test in BHI Agar (MIC), S. aureus UC 746; type: cell-based; conditions: Staphylococcus aureus, UC746, 37°, 20 h, first table, read-out: Minimum Inhibitory Concentration
Experimental: as §1, with “composition: […]” for “composition:”

[16] = tested on: P. rettgeri UC 339; test: standard microplate test in BHI Agar (MIC), P. rettgeri UC 339; type: cell-based; conditions: Providencia rettgeri, UC339, 20 h, P. rettgeri UC 339, retest table, neamine control, read-out: Minimum Inhibitory Concentration
Experimental: as §1, §2

[17] = tested on: St. faecalis UC 694; test: standard microplate test in BHI Agar (MIC), St. faecalis UC 694; type: cell-based; conditions: Enterococcus faecalis, UC694, 20 h, read-out: Minimum Inhibitory Concentration
Experimental: as §1, §2

[18] = tested on: P. vulgaris UC 93; test: standard microplate test in BHI Agar (MIC), P. vulgaris UC 93; type: cell-based; conditions: Proteus vulgaris, UC93, 20 h, P. vulgaris UC 93, read-out: Minimum Inhibitory Concentration
Experimental: as §1, §2

[19] = tested on: S. typhi TG-3; test: standard microplate test in BHI Agar (MIC), S. typhi TG-3; type: cell-based; conditions: Salmonella enterica, 20 h, read-out: Minimum Inhibitory Concentration
Experimental: as §1, §2

[20] = BHI agar, 37°, 20 h, first table, *run on different day
[21] = retest table, group (7β), (14β), neamine control
[22] = BHI agar, 37°, 20 h, first table
[23] = retest table, group (9), (11), (7α), neamine control

Structure (SMILES): NC[C@H]1O[C@H](O[C@H]2[C@H](O)[C@@H](O[C@@H]3O[C@H](CO)[C@@H](O)[C@H]3O)[C@H](N)C[C@@H]2N)[C@H](N)[C@@H](O)[C@@H]1O [(7β), 6-O-(β-D-Ribofuranosyl)neamine]
- MIC ([1]; read-out: Minimum Inhibitory Concentration, K. pneumoniae UC 58, BHI agar, 37°, 20 h, first table, *run on different day): 62.5 µg/mL (≈ 138 µM)
- MIC ([1]; K. pneumoniae UC 58, retest table, group (7β), (14β), neamine control, read-out: Minimum Inhibitory Concentration): 250 µg/mL (≈ 550 µM)
- MIC ([2]; UC152, 20 h, read-out: Minimum Inhibitory Concentration, S. hemolyticus UC 152, BHI agar, 37°, 20 h, first table, *run on different day): 62.5 µg/mL (≈ 138 µM)
- MIC ([2]; UC152, 20 h, S. hemolyticus UC 152, retest table, group (7β), (14β), neamine control, read-out: Minimum Inhibitory Concentration): 250 µg/mL (≈ 550 µM)
- zone of inhibition at 5000 µg/mL [3]: 35 mm
- zone of inhibition at 10000 µg/mL [3]: 38 mm
- active against Bacillus subtilis [3]: active
- MIC ([4]; group (7β), (14β)): 1000 µg/mL (≈ 2200 µM)
- MIC [5, 20]: > 1000 µg/mL
- MIC [5, 21]: 1000 µg/mL (≈ 2200 µM)
- MIC [6, 20]: > 1000 µg/mL
- MIC [6, 21]: 1000 µg/mL (≈ 2200 µM)
- MIC ([7]; group (7β), (14β)): 1000 µg/mL (≈ 2200 µM)
- zone of inhibition at 5000 µg/mL [8]: 25 mm
- zone of inhibition at 10000 µg/mL [8]: 34 mm
- active against Bacillus cereus [8]: active
- MIC ([9]; UC570, 37°, 20 h, *run on different day): 1000 µg/mL (≈ 2200 µM)
- MIC ([10]; BHI agar, 37°, first table, *run on different day): 250 µg/mL (≈ 550 µM)
- MIC [10, 21]: 500 µg/mL (≈ 1100 µM)
- MIC [11, 20]: 500 µg/mL (≈ 1100 µM)
- MIC [11, 21]: 1000 µg/mL (≈ 2200 µM)
- MIC ([12]; S. aureus 284 UC 76, BHI agar, 37°, 20 h, first table, *run on different day): 1000 µg/mL (≈ 2200 µM)
- MIC ([12]; S. aureus UC 76, retest table, group (7β), (14β), neamine control): 500 µg/mL (≈ 1100 µM)
- MIC ([13]; group (7β), (14β)): 1000 µg/mL (≈ 2200 µM)
- MIC ([14]; group (7β), (14β)): 1000 µg/mL (≈ 2200 µM)
- MIC ([15]; *run on different day): 500 µg/mL (≈ 1100 µM)
- MIC ([16]; group (7β), (14β)): 1000 µg/mL (≈ 2200 µM)
- MIC ([17]; S. faecalis UC 694, retest table, group (7β), (14β), neamine control): 1000 µg/mL (≈ 2200 µM)
- MIC ([17]; St. faecalis UC 694, BHI agar, 37°, 20 h, first table, *run on different day): > 1000 µg/mL
- MIC [18, 20]: 500 µg/mL (≈ 1100 µM)
- MIC [18, 21]: 1000 µg/mL (≈ 2200 µM)
- MIC [19]: 1000 µg/mL (≈ 2200 µM)

Structure (SMILES): CC1(O[C@@H]2[C@@H](O)[C@H](O[C@H]3O[C@H](CN)[C@@H](O)[C@H](O)[C@H]3N)[C@@H](N)C[C@H]2N)O[C@H]2O[C@H](CO)[C@@H](O)[C@H]2O1 (stereo partly shown) [Compound (9)]
- MIC ([1]; read-out: Minimum Inhibitory Concentration, K. pneumoniae UC 58, BHI agar, 37°, 20 h, first table): 62.5 µg/mL (≈ 126 µM)
- MIC ([1]; K. pneumoniae UC 58, retest table, group (9), (11), (7α), neamine control, read-out: Minimum Inhibitory Concentration): 31.2 µg/mL (≈ 62.8 µM)
- Minimum Inhibitory Concentration ([2]; S. hemolyticus UC 152, retest table, group (9), (11), (7α), neamine control): 3.9 µg/mL
- MIC ([2]; UC152, S. hemolyticus UC 152, BHI agar, 37°, 20 h, first table, read-out: Minimum Inhibitory Concentration): 3.9 µg/mL (≈ 7.85 µM)
- zone of inhibition at 5000 µg/mL [3]: 32 mm
- zone of inhibition at 10000 µg/mL [3]: 34 mm
- active against Bacillus subtilis [3]: active
- MIC ([4]; group (9), (11), (7α)): 125 µg/mL (≈ 252 µM)
- MIC [5, 22]: > 1000 µg/mL
- MIC [5, 23]: 1000 µg/mL (≈ 2010 µM)
- MIC [6, 22]: > 1000 µg/mL
- MIC [6, 23]: 125 µg/mL (≈ 252 µM)
- MIC ([7]; group (9), (11), (7α)): 500 µg/mL (≈ 1010 µM)
- zone of inhibition at 5000 µg/mL [8]: 29 mm
- zone of inhibition at 10000 µg/mL [8]: 34 mm
- active against Bacillus cereus [8]: active
- MIC ([9]; UC570, 20 h, 37°): 250 µg/mL (≈ 504 µM)
- MIC ([10]; BHI agar, 37°, first table): 250 µg/mL (≈ 504 µM)
- MIC [10, 23]: 62.5 µg/mL (≈ 126 µM)
- MIC [11, 22]: 250 µg/mL (≈ 504 µM)
- MIC [11, 23]: 250 µg/mL (≈ 504 µM)
- MIC ([12]; S. aureus UC 76, retest table, group (9), (11), (7α), neamine control): 125 µg/mL (≈ 252 µM)
- active against Staphylococcus aureus ([12]; conclusion in words from the above results): active
- MIC ([13]; group (9), (11), (7α)): 500 µg/mL (≈ 1010 µM)
- MIC ([14]; group (9), (11), (7α)): 500 µg/mL (≈ 1010 µM)
- MIC [15]: 250 µg/mL (≈ 504 µM)
- MIC ([16]; group (9), (11), (7α)): 1000 µg/mL (≈ 2010 µM)
- MIC ([17]; S. faecalis UC 694, retest table, group (9), (11), (7α), neamine control): 1000 µg/mL (≈ 2010 µM)
- MIC ([17]; St. faecalis UC 694, BHI agar, 37°, 20 h, first table): > 1000 µg/mL
- MIC [18, 22]: 500 µg/mL (≈ 1010 µM)
- MIC [18, 23]: 125 µg/mL (≈ 252 µM)
- MIC [19]: 250 µg/mL (≈ 504 µM)
